Source: patent EP0013144A1, “Substituted diphenylamine derivatives, compositions and herbicidal uses thereof, and processes for their preparation” (ICI AUSTRALIA LIMITED, priority 1978, dated 1980)

Columns and labels:
Assay type in all cases: in vivo
Ipomea [1] = assay: Pre-emergence herbicidal activity (Example 31); conditions: after three weeks
Protocol: (§1) Concentrated formulations of the compounds of the invention were prepared by: • a) in the case of oils and waxy solids, dissolving the compound in toluene containing 7% v/v "Teric" N13 ("Teric" is a Trade MarK and "Teric" N13, a product of ethoxylation of nonylphenol, is available from ICI Australia Limited) and 3% v/v "Kemmat" SC15B ("Kemmat" is a Trade Mark and "Kemmat" SC15B is a formulation of calcium dodecylbenzene sulfonate); or • b) in the case of crystalline solids, adding 5 parts by weight of the compound and 1 part by weight of . ''Dyapol" PT ("Dyapol" is a Trade Mark and "Dyapol" PT is an anionic suspending agent) to 94 parts by weight of an aqueous solution containing 0.25% v/v of "Teric" N8 (a product of ethoxylation of nonylphenol) and ball-milling the mixture to produce a stable suspension. The emulsifiable concentrates and suspensions were then diluted with water to give an aqueous composition of the required concentration suitable for use in the evaluation of the pre-emergence and post-emergence herbicidal activity of the compounds of the invention.
(§2) The pre-emergent herbicidal activity of the compounds of the invention formulated as described in Example 30 was assessed by the following procedure.
(§3) The seeds of the test species were sown in rows 2 cm deep in soil contained in seed boxes. The monocotyledonous plants and the dicotyledonous plants were sprayed with the required quantity of a composition of the invention. Two duplicate seed Doxes were prepared in the same manner but were not sprayed with a composition of the invention and were used for comparison purposes. All the boxes were placed in a glasshouse, lightly watered with an overhead spray to initiate germination and then sub-irrigated as required for optimum plant growth. After three weeks the boxes were removed from the glasshouse and the effect of the treatment was visually assessed. The results are presented in Table 3 where the damage to plants is rated on a scale of from 0 to 3 where 0 represents from 0 to 25% damage, 3 represents 75 to 99% kill and 3+ represents 100% kill.
(§4) A dash (-) means that no experiment was carried out.

Mustard [2] = assay: Pre-emergence herbicidal activity (Example 31); conditions: after three weeks
Protocol: as §1, §2, §3, §4

Japanese millet [3] = assay: Pre-emergence herbicidal activity (Example 31); conditions: after three weeks
Protocol: as §1, §2, §3, §4

Sunflower [4] = assay: Pre-emergence herbicidal activity (Example 31); conditions: after three weeks
Protocol: as §1, §2, §3, §4

Wild Oats [5] = assay: Pre-emergence herbicidal activity (Example 31); conditions: after three weeks
Protocol: as §1, §2, §3, §4

Mustard [6] = assay: Post-emergence herbicidal activity (Example 32); conditions: 3 weeks after spraying
Protocol: as §1
(§5) The post-emergent herbicidal activity of the compounds of the invention formulated as described in Example 30 was assessed by the following procedure.
(§6) The seeds of the test species were sown in rows 2 cm deep in soil contained in seed boxes. The monocotyledonous plants and the dicotyledonous plants were sown in separate seed boxes in duplicate. The four seed boxes were placed in a glasshouse, lightly watered with an overhead spray to initiate germination and then sub-irrigated as required for optimum plant growth. After the plants had grown to a height of about 10 to 12.5 cm one box of each of the monocotyledonous plants and the dicotyledonous plants was removed from the glasshouse and sprayed with the required quantity of a composition of the invention. After spraying the boxes were returned to the glasshouse for further 3 weeks and the effects of the treatment was visually assessed by comparison with the untreated controls. The results are presented in Table 4 where the damage to plants is rated on a scale of from 0 to 3 where 0 represents 0 to 25% damage, 3 represents 75 to 99% kill and 3+ represents 100% kill. A dash (-) means that no experiment was carried out.

Japanese millet [7] = assay: Post-emergence herbicidal activity (Example 32); conditions: 3 weeks after spraying
Protocol: as §1, §5, §6

Wild Oats [8] = assay: Post-emergence herbicidal activity (Example 32); conditions: 3 weeks after spraying
Protocol: as §1, §5, §6

Ryegrass [9] = assay: Post-emergence herbicidal activity (Example 32); conditions: 3 weeks after spraying
Protocol: as §1, §5, §6

Wheat [10] = assay: Pre-emergence herbicidal activity (Example 31); design: key: 0-3 scale: 0 = 0-25% damage, 3 = 75-99% kill, 3+ = 100% kill; conditions: after three weeks
Protocol: as §1, §2, §3, §4

Ryegrass [11] = assay: Pre-emergence herbicidal activity (Example 31); design: key: 0-3 scale: 0 = 0-25% damage, 3 = 75-99% kill, 3+ = 100% kill; conditions: after three weeks
Protocol: as §1, §2, §3, §4

Wheat [12] = assay: Post-emergence herbicidal activity (Example 32); design: key: 0-3 scale: 0 = 0-25% damage, 3 = 75-99% kill, 3+ = 100% kill; conditions: 3 weeks after spraying
Protocol: as §1, §5, §6

Ipomea [13] = assay: Post-emergence herbicidal activity (Example 32); conditions: 3 weeks after spraying
Protocol: as §1, §5, §6

Sunflower [14] = assay: Post-emergence herbicidal activity (Example 32); conditions: 3 weeks after spraying
Protocol: as §1, §5, §6

SMILES	damage to plants, Ip (Ipomea [1]; 5 kg/ha)	damage to plants, Ms (Mustard [2]; 5 kg/ha)	damage to plants, Jm (Japanese millet [3]; 5 kg/ha)	damage to plants, Sf (Sunflower [4]; 5 kg/ha)	damage to plants, Ot (Wild Oats [5]; 5 kg/ha)	damage to plants, Ms (Mustard [6]; 1 kg/ha)	damage to plants, Ms (Mustard [6]; 5 kg/ha)	damage to plants, Jm (Japanese millet [7]; 1 kg/ha)	damage to plants, Jm (Japanese millet [7]; 5 kg/ha)	damage to plants, Ot (Wild Oats [8]; 1 kg/ha)	damage to plants, Ot (Wild Oats [8]; 5 kg/ha)	damage to plants, Rg (Ryegrass [9]; 1 kg/ha)	damage to plants, Rg (Ryegrass [9]; 5 kg/ha)	damage to plants, Wh (Wheat [10]; 5 kg/ha)	damage to plants, Rg (Ryegrass [11]; 5 kg/ha)	damage to plants, Wh (Wheat [12]; 1 kg/ha)	damage to plants, Wh (Wheat [12]; 5 kg/ha)	damage to plants, Ip (Ipomea [1]; 1 kg/ha)	damage to plants, Ms (Mustard [2]; 1 kg/ha)	damage to plants, Jm (Japanese millet [3]; 1 kg/ha)	also measured
COC(=O)C(C)Oc1ccc(Nc2ccc(Cl)cc2Cl)cc1 (centres unmarked) [Compound 22]	0 (0 represents from 0 to 25% damage)	0 (0 represents from 0 to 25% damage)	2	0 (0 represents from 0 to 25% damage)	0 (0 represents from 0 to 25% damage)	1	3+ (3+ represents 100% kill)	3+ (3+ represents 100% kill)	3+ (3+ represents 100% kill)	2	3+ (3+ represents 100% kill)	3+ (3+ represents 100% kill)	3+ (3+ represents 100% kill)	0 (0 represents from 0 to 25% damage)	2	1	3 (3 represents 75 to 99% kill)	–	–	–	–
COC(=O)C(C)Oc1ccc(Nc2ccc(Br)cc2N)cc1 (centres unmarked) [Compound 32, Methyl 2-[4-(2-amino-4-bromoanilino)phenoxy] propionate]	0 (0 represents from 0 to 25% damage)	0 (0 represents from 0 to 25% damage)	3 (3 represents 75 to 99% kill)	0 (0 represents from 0 to 25% damage)	0 (0 represents from 0 to 25% damage)	–	–	–	–	–	–	–	–	1	2	–	–	–	–	–	–
CC(Oc1ccc(Nc2ccc(Cl)cc2[N+](=O)[O-])cc1)C(=O)OC1CCCCC1 (centres unmarked) [Compound 79]	0 (0 represents from 0 to 25% damage)	0 (0 represents from 0 to 25% damage)	3+ (3+ represents 100% kill)	0 (0 represents from 0 to 25% damage)	–	0 (0 represents 0 to 25% damage)	0 (0 represents 0 to 25% damage)	3+ (3+ represents 100% kill)	3+ (3+ represents 100% kill)	3 (3 represents 75 to 99% kill)	3 (3 represents 75 to 99% kill)	3+ (3+ represents 100% kill)	3 (3 represents 75 to 99% kill)	0 (0 represents from 0 to 25% damage)	3 (3 represents 75 to 99% kill)	2	3 (3 represents 75 to 99% kill)	0 (0 represents from 0 to 25% damage)	0 (0 represents from 0 to 25% damage)	3 (3 represents 75 to 99% kill)	damage to plants, Sf (Sunflower [4]; 1 kg/ha): 0 (0 represents from 0 to 25% damage); damage to plants, Ip (Ipomea [13]; 1 kg/ha): 0 (0 represents 0 to 25% damage); damage to plants, Ip (Ipomea [13]; 5 kg/ha): 0 (0 represents 0 to 25% damage); damage to plants, Sf (Sunflower [14]; 1 kg/ha): 0 (0 represents 0 to 25% damage); damage to plants, Sf (Sunflower [14]; 5 kg/ha): 0 (0 represents 0 to 25% damage); damage to plants, Wh (Wheat [10]; 1 kg/ha): 0 (0 represents from 0 to 25% damage); damage to plants, Rg (Ryegrass [11]; 1 kg/ha): 3 (3 represents 75 to 99% kill)
CCCCSC(=O)C(C)Oc1ccc(Nc2ccc(C(F)(F)F)cc2[N+](=O)[O-])cc1 (centres unmarked) [Compound 62]	–	–	–	–	–	0 (0 represents 0 to 25% damage)	–	3+ (3+ represents 100% kill)	–	3 (3 represents 75 to 99% kill)	–	3+ (3+ represents 100% kill)	–	–	–	3 (3 represents 75 to 99% kill)	–	0 (0 represents from 0 to 25% damage)	0 (0 represents from 0 to 25% damage)	2	damage to plants, Sf (Sunflower [4]; 1 kg/ha): 0 (0 represents from 0 to 25% damage); damage to plants, Ot (Wild Oats [5]; 1 kg/ha): 1; damage to plants, Ip (Ipomea [13]; 1 kg/ha): 0 (0 represents 0 to 25% damage); damage to plants, Sf (Sunflower [14]; 1 kg/ha): 0 (0 represents 0 to 25% damage); damage to plants, Wh (Wheat [10]; 1 kg/ha): 0 (0 represents from 0 to 25% damage); damage to plants, Rg (Ryegrass [11]; 1 kg/ha): 2
COC(=O)C(C)Oc1ccc(Nc2ccccc2[N+](=O)[O-])cc1 (centres unmarked) [Compound 25]	–	–	–	–	–	–	–	–	–	–	–	–	–	–	–	–	–	–	–	–	damage to plants, Ip (Ipomea [1]; 10 kg/ha): 0 (0 represents from 0 to 25% damage); damage to plants, Ms (Mustard [2]; 10 kg/ha): 0 (0 represents from 0 to 25% damage); damage to plants, Jm (Japanese millet [3]; 10 kg/ha): 3 (3 represents 75 to 99% kill); damage to plants, Sf (Sunflower [4]; 10 kg/ha): 0 (0 represents from 0 to 25% damage); damage to plants, Ip (Ipomea [13]; 10 kg/ha): 0 (0 represents 0 to 25% damage); damage to plants, Ms (Mustard [6]; 10 kg/ha): 0 (0 represents 0 to 25% damage); damage to plants, Jm (Japanese millet [7]; 10 kg/ha): 3+ (3+ represents 100% kill); damage to plants, Sf (Sunflower [14]; 10 kg/ha): 0 (0 represents 0 to 25% damage); damage to plants, Ot (Wild Oats [8]; 10 kg/ha): 3 (3 represents 75 to 99% kill); damage to plants, Rg (Ryegrass [9]; 10 kg/ha): 3+ (3+ represents 100% kill); damage to plants, Wh (Wheat [10]; 10 kg/ha): 1; damage to plants, Rg (Ryegrass [11]; 10 kg/ha): 3+ (3+ represents 100% kill); damage to plants, Wh (Wheat [12]; 10 kg/ha): 3 (3 represents 75 to 99% kill)
